Key:
[1] = In vitro radiochemical stability; type: physicochemical; details: 40°C, after 30 min of incubation
Protocol: In vitro radiochemical stabilities of [^18F]1 and [^18F]2 were investigated in 0.9% NaCl solution, Dulbecco’s phosphate buffer, 0.01 M Tris–HCl (pH 7.4 at 21°C), and EtOH at 40°C for 90 min. Samples were taken at 15, 30, 60, and 90 min after incubation and analyzed by radio-TLC and radio-HPLC.

[2] = Ex vivo biodistribution (organ distribution) in mice; details: i.v. 300 to 400 kBq, female CD1 mice
Protocol: (§1) Female CD1 mice (10 to 12 weeks old, 20 to 25 g) received an injection of 300 to 400 kBq of [^18F]1 or [^18F]2 with specific activities of >450 GBq/μmol in 200 μL of 0.9% NaCl/10% EtOH into the tail vein. The animals were anesthetized (CO2/O2 mixture) for blood and urine sampling and euthanized by luxation of the cervical spine at 5, 30, and 60 min after injection (p.i.) (n = 2 to 5 per time). The organs of interest were removed and weighed, and the activities were measured by γ counting using a calibrated γ counter Wallac Wizard 1470 (Perkin Elmer Inc., Waltham, MA, USA). The percentage of injected dose per gram of wet tissue (% ID/g wet weight) was calculated.

[3] = target: CB2R (Mus musculus, UniProt P47936); design: species or system female CD1 mice; details: female, CD1, mouse, in vivo
CB2R, sequence (P47936 whole entry): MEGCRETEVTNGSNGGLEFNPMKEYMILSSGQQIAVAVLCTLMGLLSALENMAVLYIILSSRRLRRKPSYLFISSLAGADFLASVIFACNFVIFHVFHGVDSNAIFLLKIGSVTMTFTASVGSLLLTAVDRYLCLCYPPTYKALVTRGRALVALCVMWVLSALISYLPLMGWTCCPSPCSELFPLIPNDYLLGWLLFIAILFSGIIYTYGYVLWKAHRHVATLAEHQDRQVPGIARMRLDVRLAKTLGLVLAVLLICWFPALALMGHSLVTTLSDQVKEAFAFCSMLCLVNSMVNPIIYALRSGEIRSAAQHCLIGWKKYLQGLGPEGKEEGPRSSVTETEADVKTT
Protocol: as §1
(3 mg/kg i.p. in 0.9% saline, 10 min before the injection of the radiotracer) at 60 min p.i. (n = 2 to 5). The unpaired two-tailed t test was used to compare the results between the groups. We considered differences to be significant at a p value <0.05.

[4] = Ex vivo metabolite studies (radio-HPLC of plasma and brain extracts); type: in vivo, CD1 mice; details: mice
Protocol: [^18F]1 and [^18F]2 (100 to 150 MBq, 250 to 450 GBq/μmol in 150 μL NaCl 0.9%/10% EtOH) were injected via the tail vein in CD1 male mice (10 to 12 weeks old, 20 to 25 g). Blood and urine samples were obtained at 30 and 60 min p.i. (n = 3 per time point). Twofold extractions of plasma and brain samples (n = 3) were performed using ice-cold MeCN according to the standard protocol established in our group (see [47, 48]). Briefly, plasma samples were obtained by centrifugation of the blood at 4,000×g at 4°C for 10 min, and brain samples were homogenized in ice-cold 50 mM Tris–HCl (pH = 7.4). The samples were vortexed, incubated on ice, and centrifuged at 10,000×g for 3 min. Supernatants were collected, and the precipitates were re-dissolved in ice-cold MeCN for the second extraction. The supernatants from the two extractions were combined, concentrated under a gentle argon stream at 65°C, and analyzed by radio-TLC and gradient analytical HPLC (see ‘Radiochemistry’ section). Aliquots from each extraction supernatant and the precipitates were also taken and quantified by γ counting (Wallac Wizard 1470, Perkin Elmer Inc., Waltham, MA, USA) along with the respective aliquots of intact plasma samples and brain homogenates. A moderate recovery of radioactivity was obtained from plasma samples and brain homogenates (60% to 70%). Radiometabolites of [^18F]17 in the plasma, spleen, and brain were assessed at 30 and 60 min p.i.

With `O=C(CCc1nc(-c2ccc(F)cc2Br)no1)Nc1ccc2c(c1)c1ccccc1n2CC[18F]` [[^18F]1] the intact tracer ([1]; 0.9% NaCl) was 95%, the intact tracer ([1]; Dulbecco’s phosphate buffer) was 94% and the intact tracer ([1]; EtOH) was 93%. For the same compound, the intact tracer ([1]; Tris–HCl) was 89%, the “Radioactivity uptake, Adrenals, Control 5 min” value [2] was 4.16 ± 6.23 % ID/g and the “Radioactivity uptake, Adrenals, Control 30 min” value [2] was 3.31 ± 0.99 % ID/g. The “Radioactivity uptake, Adrenals, Control 60 min” value [2] was 3.16 ± 1.25 % ID/g, the “Radioactivity uptake, Bladder, Control 5 min” value [2] was 2.23 ± 1.39 % ID/g and the “Radioactivity uptake, Bladder, Control 30 min” value [2] was 1.65 ± 0.43 % ID/g. For the same compound, the “Radioactivity uptake, Bladder, Control 60 min” value [2] was 3.27 ± 1.94 % ID/g, the “Radioactivity uptake, Blood, Control 5 min” value [2] was 1.94 ± 0.44 % ID/g and the “Radioactivity uptake, Blood, Control 30 min” value [2] was 1.44 ± 0.41 % ID/g. For the same compound, the “Radioactivity uptake, Blood, Control 60 min” value [2] was 1.94 ± 0.69 % ID/g, the “Radioactivity uptake, Brain, Control 5 min” value [2] was 1.31 ± 0.24 % ID/g and the “Radioactivity uptake, Brain, Control 30 min” value [2] was 0.76 ± 0.22 % ID/g. The “Radioactivity uptake, Brain, Control 60 min” value [2] was 0.92 ± 0.27 % ID/g, the “Radioactivity uptake, Femur, Control 5 min” value [2] was 2.00 ± 0.38 % ID/g and the “Radioactivity uptake, Femur, Control 30 min” value [2] was 1.37 ± 0.50 % ID/g. For the same compound, the “Radioactivity uptake, Femur, Control 60 min” value [2] was 1.84 ± 0.35 % ID/g, the “Radioactivity uptake, Gonads, Control 5 min” value [2] was 1.06 ± 0.94 % ID/g and the “Radioactivity uptake, Gonads, Control 30 min” value [2] was 1.02 ± 0.26 % ID/g. For the same compound, the “Radioactivity uptake, Gonads, Control 60 min” value [2] was 1.33 ± 0.50 % ID/g, the “Radioactivity uptake, Heart, Control 5 min” value [2] was 3.39 ± 0.45 % ID/g and the “Radioactivity uptake, Heart, Control 30 min” value [2] was 1.43 ± 0.47 % ID/g. The “Radioactivity uptake, Heart, Control 60 min” value [2] was 1.66 ± 0.37 % ID/g, the “Radioactivity uptake, Kidney, Control 5 min” value [2] was 13.40 ± 5.66 % ID/g and the “Radioactivity uptake, Kidney, Control 30 min” value [2] was 2.68 ± 0.37 % ID/g. For the same compound, the “Radioactivity uptake, Kidney, Control 60 min” value [2] was 1.65 ± 0.49 % ID/g, the “Radioactivity uptake, Large intestine, Control 5 min” value [2] was 1.91 ± 2.66 % ID/g and the “Radioactivity uptake, Large intestine, Control 30 min” value [2] was 3.24 ± 5.61 % ID/g. For the same compound, the “Radioactivity uptake, Large intestine, Control 60 min” value [2] was 1.54 ± 0.42 % ID/g, the “Radioactivity uptake, Liver, Control 5 min” value [2] was 11.00 ± 1.04 % ID/g and the “Radioactivity uptake, Liver, Control 30 min” value [2] was 4.38 ± 1.19 % ID/g. For the same compound, the “Radioactivity uptake, Liver, Control 60 min” value [2] was 5.29 ± 1.22 % ID/g, the “Radioactivity uptake, Lung, Control 5 min” value [2] was 3.68 ± 0.62 % ID/g and the “Radioactivity uptake, Lung, Control 30 min” value [2] was 1.65 ± 0.70 % ID/g. For the same compound, the “Radioactivity uptake, Lung, Control 60 min” value [2] was 1.77 ± 0.74 % ID/g, the “Radioactivity uptake, Muscle, Control 5 min” value [2] was 2.10 ± 0.33 % ID/g and the “Radioactivity uptake, Muscle, Control 30 min” value [2] was 1.02 ± 0.50 % ID/g. The “Radioactivity uptake, Muscle, Control 60 min” value [2] was 0.89 ± 0.19 % ID/g, the “Radioactivity uptake, Pancreas, Control 5 min” value [2] was 4.97 ± 0.62 % ID/g and the “Radioactivity uptake, Pancreas, Control 30 min” value [2] was 1.50 ± 0.74 % ID/g. For the same compound, the “Radioactivity uptake, Pancreas, Control 60 min” value [2] was 1.13 ± 0.11 % ID/g, the “Radioactivity uptake, Plasma, Control 5 min” value [2] was 2.52 ± 0.58 % ID/g and the “Radioactivity uptake, Plasma, Control 30 min” value [2] was 1.88 ± 0.58 % ID/g. For the same compound, the “Radioactivity uptake, Plasma, Control 60 min” value [2] was 2.50 ± 0.87 % ID/g, the “Radioactivity uptake, Small intestine, Control 5 min” value [2] was 4.36 ± 2.09 % ID/g and the “Radioactivity uptake, Small intestine, Control 30 min” value [2] was 10.51 ± 8.38 % ID/g. The “Radioactivity uptake, Small intestine, Control 60 min” value [2] was 22.03 ± 8.32 % ID/g, the “Radioactivity uptake, Spleen, Control 5 min” value [2] was 3.44 ± 0.77 % ID/g and the “Radioactivity uptake, Spleen, Control 30 min” value [2] was 1.46 ± 0.56 % ID/g. The “Radioactivity uptake, Spleen, Control 60 min” value [2] was 1.52 ± 0.62 % ID/g, the “Radioactivity uptake, Stomach, Control 5 min” value [2] was 2.05 ± 0.33 % ID/g and the “Radioactivity uptake, Stomach, Control 30 min” value [2] was 1.23 ± 0.36 % ID/g. The “Radioactivity uptake, Stomach, Control 60 min” value [2] was 2.70 ± 1.47 % ID/g, the “Radioactivity uptake, Thymus, Control 5 min” value [2] was 3.30 ± 0.58 % ID/g and the “Radioactivity uptake, Thymus, Control 30 min” value [2] was 1.57 ± 0.80 % ID/g. The “Radioactivity uptake, Thymus, Control 60 min” value [2] was 1.90 ± 0.98 % ID/g, the “Radioactivity uptake, Adrenals, Blocking 60 min” value ([3]; 3 mg/kg, 1 h) was 3.00 ± 0.64 % ID/g and the “Radioactivity uptake, Bladder, Blocking 60 min” value ([3]; 3 mg/kg, 1 h) was 5.07 ± 3.84 % ID/g. For the same compound, the “Radioactivity uptake, Blood, Blocking 60 min” value ([3]; 3 mg/kg, 1 h) was 1.43 ± 0.34 % ID/g, the “Radioactivity uptake, Brain, Blocking 60 min” value ([3]; 3 mg/kg, 1 h) was 0.66 ± 0.11 % ID/g and the “Radioactivity uptake, Femur, Blocking 60 min” value ([3]; 3 mg/kg, 1 h) was 1.49 ± 0.45 % ID/g. For the same compound, the “Radioactivity uptake, Gonads, Blocking 60 min” value ([3]; 3 mg/kg, 1 h) was 1.19 ± 0.30 % ID/g, the “Radioactivity uptake, Heart, Blocking 60 min” value ([3]; 3 mg/kg, 1 h) was 1.49 ± 0.29 % ID/g and the “Radioactivity uptake, Kidney, Blocking 60 min” value ([3]; 3 mg/kg, 1 h) was 1.74 ± 0.48 % ID/g. For the same compound, the “Radioactivity uptake, Large intestine, Blocking 60 min” value ([3]; 3 mg/kg, 1 h) was 1.63 ± 0.64 % ID/g, the “Radioactivity uptake, Liver, Blocking 60 min” value ([3]; 3 mg/kg, 1 h) was 4.22 ± 0.96 % ID/g and the “Radioactivity uptake, Lung, Blocking 60 min” value ([3]; 3 mg/kg, 1 h) was 1.47 ± 0.29 % ID/g. For the same compound, the “Radioactivity uptake, Muscle, Blocking 60 min” value ([3]; 3 mg/kg, 1 h) was 0.93 ± 0.23 % ID/g, the “Radioactivity uptake, Pancreas, Blocking 60 min” value ([3]; 3 mg/kg, 1 h) was 1.03 ± 0.26 % ID/g and the “Radioactivity uptake, Plasma, Blocking 60 min” value ([3]; 3 mg/kg, 1 h) was 1.87 ± 0.41 % ID/g. The “Radioactivity uptake, Small intestine, Blocking 60 min” value ([3]; 3 mg/kg, 1 h) was 19.39 ± 5.53 % ID/g, the “Radioactivity uptake, Spleen, Blocking 60 min” value ([3]; 3 mg/kg, 1 h) was 0.98 ± 0.21 % ID/g and the “Radioactivity uptake, Stomach, Blocking 60 min” value ([3]; 3 mg/kg, 1 h) was 1.84 ± 1.28 % ID/g. The “Radioactivity uptake, Thymus, Blocking 60 min” value ([3]; 3 mg/kg, 1 h) was 1.50 ± 0.35 % ID/g, the “% control, Adrenals” value ([3]; 60 min) was 95 % control and the “% control, Bladder” value ([3]; 60 min) was 155 % control. The “% control, Blood” value ([3]; 60 min) was 74 % control, the “% control, Brain” value ([3]; 60 min) was 72 % control and the “% control, Femur” value ([3]; 60 min) was 81 % control. For the same compound, the “% control, Gonads” value ([3]; 60 min) was 89 % control, the “% control, Heart” value ([3]; 60 min) was 90 % control and the “% control, Kidney” value ([3]; 60 min) was 106 % control. For the same compound, the “% control, L. intestine” value ([3]; 60 min) was 106 % control, the “% control, Liver” value ([3]; 60 min) was 80 % control and the “% control, Lung” value ([3]; 60 min) was 83 % control. For the same compound, the “% control, Muscle” value ([3]; 60 min) was 104 % control, the “% control, Pancreas” value ([3]; 60 min) was 91 % control and the “% control, Plasma” value ([3]; 60 min) was 75 % control. For the same compound, the “% control, S. intestine” value ([3]; 60 min) was 88 % control, the “% control, Spleen” value ([3]; 60 min) was 65 % control and the “% control, Stomach” value ([3]; 60 min) was 68 % control. The “% control, Thymus” value ([3]; 60 min) was 79 % control, the “Percentage of total activity in brain samples, 30 min p.i.” value ([4]; brain homogenate extract, 30 min p.i. of [18F]1 or [18F]2, radio-HPLC) was 68% and the “Percentage of total activity in brain samples, 60 min p.i.” value ([4]; brain homogenate extract, 60 min p.i. of [18F]1 or [18F]2, radio-HPLC) was 35%. For the same compound, the “Relative percentage of intact tracer and radiometabolites, Plasma 30 min p.i.” value ([4]; plasma, 30 min p.i. of [18F]1 or [18F]2, radio-HPLC) was 60% and the “Relative percentage of intact tracer and radiometabolites, Plasma 60 min p.i.” value ([4]; plasma, 60 min p.i. of [18F]1 or [18F]2, radio-HPLC) was 7%.
